Experimental data: patent US20110030077A1, “METHODS OF MODULATING THE ORGANIC SOLUTE AND STEROID TRANSPORTER (OSTalpha-OSTbeta) ACTIVITY AND TREATING ASSOCIATED CONDITIONS” (UNIVERSITY OF ROCHESTER, priority 2009, published 2011)
One block for each molecule: values may come before it.

Tests used:
[1] = intraileal injection
Procedure: [^3H]Estrone 3-sulfate, 0.005 μmol/100 μl, was injected directly into the ileal lumen of Ostα^+/+ and Ostα^−/− male (FIG. 18C) and female (FIG. 18D) mice. Tissues were collected for analysis of radioactivity after 30 min.
Mice that had been fed ad libitum were anesthetized by intraperitoneal administration of pentobarbital sodium (50 mg/kg) and additional anesthetic was administered as required for the duration of the experiment. […] At the end of the experiments, 150-300 μl of blood was collected from the abdominal aorta in a tared 1 ml syringe containing 50 μl of heparin (1000 U/ml). The small intestine was removed and segmented into 3 parts, where the first third after the stomach comprised the duodenum, the middle third the jejunum, and the section before the ileo-ceco-colic junction comprised the ileum. Colon, liver, gallbladder, kidney and the urinary bladder were also removed and weighed. The contents of the small intestine, colon, gallbladder and urinary bladder were included in the analysis. For the liver, approximately 0.2-0.4 g of tissue was taken for analysis of radioisotope content. Tissue and blood samples were placed in tared 20-ml glass vials, and Solvable (Perkin-Elmer, Life and Analytical Sciences, Boston, Mass.) was added to each vial (1.0 ml/0.1 g tissue or 2.0 ml/1.0 ml blood), which was then heated to 60° C. for 2 to 3 h. The vials were allowed to cool to room temperature, and 0.1 ml of 0.1 M EDTA/1.0 ml of Solvable was added to each vial of blood. H2O2 (30%) was then added in 0.1-ml aliquots (0.3 ml/1.0 ml Solvable for blood or 0.1 ml/1.0 ml Solvable for tissues). After standing at room temperature for 15 to 30 min, the vials were capped tightly and heated to 60° C. for 1 h and allowed to cool back to room temperature. After the addition of scintillation fluid (4 ml of Opti-Fluor to 200 μl of each sample) (Perkin-Elmer, Life and Analytical Sciences, Boston, Mass.), the samples were allowed to stand for at least 2 h at room temperature before counting. Samples were counted in a Beckman LS 6500 scintillation counter (Beckman Coulter, Fullerton, Calif.). […]

[2] = biological target: Ostα-YN (mouse); test: cell-based or functional assay
Chain of Ostα-YN (mouse) (Q8R000 whole entry): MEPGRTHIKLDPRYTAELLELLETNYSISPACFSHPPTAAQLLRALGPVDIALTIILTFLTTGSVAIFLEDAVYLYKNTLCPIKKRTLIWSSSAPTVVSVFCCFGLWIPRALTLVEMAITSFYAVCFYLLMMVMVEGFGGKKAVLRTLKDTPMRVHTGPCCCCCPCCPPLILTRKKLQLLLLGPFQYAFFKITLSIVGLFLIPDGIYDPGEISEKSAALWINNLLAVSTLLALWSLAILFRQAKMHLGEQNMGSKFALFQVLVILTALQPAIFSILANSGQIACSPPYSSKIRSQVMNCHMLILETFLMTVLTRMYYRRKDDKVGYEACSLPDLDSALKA

Molecule: C[C@H](CCC(=O)NCCS(=O)(=O)O)[C@H]1CC[C@H]2[C@@H]3[C@H](O)C[C@@H]4C[C@H](O)CC[C@]4(C)[C@H]3C[C@H](O)[C@]12C [taurocholate, taurocholic acid]
absorption from the ileum ([1]; wild type mice, 15 min): > 90%

[3H]taurocholate transport in cells co-transfected with Ostα-YN and Ostβ-YC [2]: 30%
Molecule: Ostβ29-53-YC (peptide)

fraction absorbed from the ileum ([1]; Ostα−/− mice, 30 min): 20-30%
removed from the ileum ([1]; wild type mice, 30 min): 60-70%
Molecule: estrone 3-sulfate [estrone sulfate]
